The results in this text go back to article PMC12845261, “Design, Synthesis, and Biological Evaluation of N-Acyl-Hydrazone-Linked Quinazolinone Derivatives with Antioxidant, Antimicrobial, and Anticancer Potential” (Pharmaceuticals, 2025).

In brackets after ≈: the same amount, converted by molar mass.

What all share (format): cell-based
For series [1], the system named is C. albicans ATCC 10231. Put plainly: Microbial adhesion, crystal violet (MICMA). The conditions noted are these: DMSO control 1.25. The procedure:
(§1) For the evaluation of antimicrobial activity, the following reference strains were used: S. aureus ATCC 25923, E. faecalis ATCC 29212, E. coli ATCC 25922, P. aeruginosa ATCC 27853 and C. albicans ATCC 10231.
(§2) Following quantitative analysis of antimicrobial activity, microbial adhesion was evaluated after methanol fixation and violet crystal staining (0.1%). The absorbance of the adhered biomass colored with violet crystal and resuspended in 33% acetic acid was measured at 490 nm.

In series [2] the test system is E. coli ATCC 25922. Put plainly: Microbial adhesion, crystal violet (MICMA). The conditions noted are these: DMSO control 5. The procedure:
as §1, §2

For series [3], the system named is P. aeruginosa ATCC 27853. The series is described as follows: Microbial adhesion, crystal violet (MICMA). Particulars: DMSO control 1.25. As for the experimental part:
as §1, §2

Series [4] concerns E. faecalis ATCC 29212. The series is described as follows: Microbial adhesion, crystal violet (MICMA). The conditions noted are these: DMSO control 2.5. As for the experimental part: as §1, §2
Series [5] concerns S. aureus ATCC 25923. Put plainly: Microbial adhesion, crystal violet (MICMA). Particulars: DMSO control 5. As for the experimental part: as §1, §2
The subject of series [6] is C. albicans ATCC 10231. Put plainly: Quantitative antimicrobial activity, serial binary microdilution (MIC, IC50). The conditions noted are these: Candida albicans, ATCC10231, 24 h, 37 °C, DMSO control 1.25. The procedure: as §1
(§3) Quantitative analysis was performed using the method of serial binary microdilutions in liquid medium (Tryptone Soy Broth for bacteria and Sabouraud Broth for yeasts) in plates with 96 wells. Stock solutions of 10 mg/mL were made in DMSO, and the range of concentrations tested for each compound was 5000–0.16 μg/mL. Simultaneously, the DMSO control was carried out under the same working conditions. Each well was inoculated with 10 μL of microbial suspension, adjusted to a density of 1.5 × 10^8 CFU/mL prepared from 18 to 24 h cultures. After 24 h of incubation at 37 °C, microbial growth and multiplication were evaluated both macroscopically and spectrophotometrically at 620 nm to establish the MIC values. […] Blanks were made for each sample concentration, and the formula was applied: Microbial viability(%)=Asample−Ablank/Astrain control−Asterility control·100

In series [7] the test system is E. coli ATCC 25922. Described as above. The conditions noted are these: Escherichia coli, ATCC25922; E. coli ATCC 25922; 24 h, 37 °C; DMSO control 1.25. As for the experimental part:
as §1, §3

For series [8], the system named is P. aeruginosa ATCC 27853. The series is described as above. The conditions noted are these: Pseudomonas aeruginosa, ATCC27853, 24 h, 37 °C, DMSO control 1.25. The procedure: as §1, §3
Series [9] concerns E. faecalis ATCC 29212. Described as above. Particulars: 37 °C, DMSO control 2.5; for MIC: Enterococcus faecalis, ATCC29212, 24 h. As for the experimental part:
as §1, §3

The subject of series [10] is S. aureus ATCC 25923. Described as above. The conditions noted are these: S. aureus ATCC 25923, 24 h, 37 °C, DMSO control 2.5; for MIC: Staphylococcus aureus, ATCC25923. The procedure:
as §1, §3

The subject of series [11] is A431 (human epidermoid carcinoma). The series is described as follows: Cytotoxicity, MTT assay. The conditions noted are these: 24 h; for Cytotoxic effect (in words): 3.125 to 50 µM. As for the experimental part:
For the cytotoxicity screening of the N-acyl-hydrazone derivatives, three cell lines were employed: HT-29 (human colorectal adenocarcinoma), A431 (human epidermoid carcinoma), and VERO (non-tumoral African green monkey kidney epithelial cells). All cell lines were obtained from the American Type Culture Collection (ATCC, Manassas, VA, USA), and maintained in appropriate culture media as follows: HT-29 and A431 cells were cultured in Dulbecco’s Modified Eagle Medium (DMEM), while VERO cells were cultured in Minimum Essential Medium (MEM). Both culture media were supplemented with 10% fetal bovine serum (FBS) and 1% penicillin-streptomycin mix, to formulate the complete culture medium. All cell lines were incubated at 37 °C in a humidified atmosphere containing 5% CO2. […] For the cytotoxicity screening, cells were seeded into sterile 96-well plates at an initial density of 1 × 10^4 cells/well and allowed to adhere for 24 h. Subsequently, cells were treated with increasing concentrations (3.125 to 50 µM) of compounds 1a–1f and 2 for 24 h. In parallel, 5-fluorouracil (5-FU, Sigma Aldrich, St. Louis, MO, USA) was included as a reference drug and tested over the same concentration range under identical experimental conditions. […] For the experimental control, culture medium was refreshed at the time of treatment application. […] Louis, MO, USA). Briefly, the culture media were discarded from each well and replaced with a fresh solution of MTT (1 mg/mL). Plates were incubated for 4 h at 37 °C, and the resulting formazan crystals were solubilized with isopropanol. The absorbance was measured at 550 nm using the FlexStation III multimodal reader (Molecular Devices, San Jose, CA, USA). All experiments were performed in triplicate and repeated in three independent assays. Cell viability was calculated as a percentage relative to the untreated control using the formula Cell Viability (%) = (Abs treated/Abs control) × 100. Data were processed using GraphPad Prism 6.0 and presented as mean ± standard deviation (SD). Statistical analysis was performed using one-way analysis of variance (ANOVA) followed by Dunnett’s post hoc test for comparison with the untreated control group.

Series [12] deals with C. albicans ATCC 10231. The series is described as follows: Qualitative antimicrobial activity, adapted Kirby-Bauer (inhibition zone). Particulars: 10 μL of 10 mg/mL DMSO stock, mean ± SD. The procedure: (§4) For the evaluation of antimicrobial activity, the following reference strains were used: S. aureus ATCC 25923, E. faecalis ATCC 29212, E. coli ATCC 25922, P. aeruginosa ATCC 27853 and C. albicans ATCC 10231. The microbial suspensions were prepared at a density of 1.5 × 10^8 CFU/mL, corresponding to the McFarland 0.5 nephelometric standard. These suspensions were obtained from 18–24 h cultures developed on solid media (Mueller-Hinton for bacteria, Sabouraud for yeast). Antimicrobial activity was assessed using an adapted Kirby-Bauer method according to CLSI (Clinical and Laboratory Standards Institute). In addition to the 10 mg/mL stock solutions prepared in DMSO for each compound, a solvent control was used. Each stock solution (10 μL) was distributed in spot on the medium inoculated with the interest strain. After measuring the diameter of the inhibition zone (IZD) around the spot (mm), the results were expressed as the mean ± standard deviation (SD) for each compound tested in duplicate.

Series [13] concerns E. coli ATCC 25922. The series is described as above. The conditions noted are these: 10 μL of 10 mg/mL DMSO stock, mean ± SD. As for the experimental part: as §4
The subject of series [14] is P. aeruginosa ATCC 27853. The description is as above. Particulars: 10 μL of 10 mg/mL DMSO stock, mean ± SD. The procedure: as §4
Series [15] has as its system E. faecalis ATCC 29212. The series is described as above. Particulars: 10 μL of 10 mg/mL DMSO stock, mean ± SD. The procedure:
as §4

Series [16] concerns S. aureus ATCC 25923. Described as above. The conditions noted are these: 10 μL of 10 mg/mL DMSO stock, mean ± SD. The procedure:
as §4

As to `COc1ccc(O)c(/C=N/NC(=O)Cn2c(C)nc3ccccc3c2=O)c1` [Compound 1e, N′-[(E)-(2-hydroxy-5-methoxyphenyl)methylidene]-2-(2-methyl-4-oxoquinazolin-3(4H)-yl)acetohydrazide], the “MICMA” value worked out at 2.5 mg/mL with C. albicans ATCC 10231 [1]; 5 mg/mL against E. coli ATCC 25922 [2]; 1.25 mg/mL with P. aeruginosa ATCC 27853 [3]; 5 mg/mL in the series on E. faecalis ATCC 29212 [4]; 2.5 mg/mL against S. aureus ATCC 25923 [5]. The minimum inhibitory concentration (MIC) against C. albicans ATCC 10231 [6] came to 1250 µg/mL (≈ 3.41 mM); in the series with E. coli ATCC 25922 [7], 5000 µg/mL (≈ 13.6 mM); with P. aeruginosa ATCC 27853 [8], 5000 µg/mL (≈ 13.6 mM); in the series on E. faecalis ATCC 29212 [9], 5000 µg/mL (≈ 13.6 mM); in the series on S. aureus ATCC 25923 [10] it was 1250 µg/mL (≈ 3.41 mM). For the same molecule, the “MIC (mg/mL)” value in the series with S. aureus ATCC 25923 [10] was “specifically active”. Further, the “Cytotoxic effect (in words)” value in series [11] is “only mild cytotoxicity”. For the same molecule, in series [11] (at all doses (3.125 to 50 µM)), the Cell viability entry is listed as “above 70%”. The “IZD (mm)” value in the series on C. albicans ATCC 10231 [12], with E. coli ATCC 25922 [13], in the series with P. aeruginosa ATCC 27853 [14], in the series on E. faecalis ATCC 29212 [15] and with S. aureus ATCC 25923 [16] was 0.00 ± 0.00 mm in each case.

Take `COc1cc(/C=N/NC(=O)Cn2c(C)nc3ccccc3c2=O)cc([N+](=O)[O-])c1O` [Compound 1f, N′-[(E)-(4-hydroxy-3-methoxy-5-nitrophenyl)methylidene]-2-(2-methyl-4-oxoquinazolin-3(4H)-yl)acetohydrazide]: the “MICMA” value was 1.25 mg/mL with C. albicans ATCC 10231 [1]; 2.5 mg/mL in the series on E. coli ATCC 25922 [2]; 1.25 mg/mL against P. aeruginosa ATCC 27853 [3]; 2.5 mg/mL in the series on E. faecalis ATCC 29212 [4]; 2.5 mg/mL against S. aureus ATCC 25923 [5]. Also, the minimal inhibitory concentration (MIC) was 1250 µg/mL (≈ 3.04 mM) in the series with C. albicans ATCC 10231 [6]; 1250 µg/mL (≈ 3.04 mM) against E. coli ATCC 25922 [7]; 1250 µg/mL (≈ 3.04 mM) in the series with P. aeruginosa ATCC 27853 [8]; 1250 µg/mL (≈ 3.04 mM) with E. faecalis ATCC 29212 [9]; 2500 µg/mL (≈ 6.08 mM) against S. aureus ATCC 25923 [10]. The “MIC (mg/mL)” value against E. faecalis ATCC 29212 [9] (24 h) was “specifically active”. Besides, the “Cytotoxic effect (in words)” value in series [11] is reported as “did not exert any inhibitory effect”. In addition, the “IZD (mm)” value in the series with C. albicans ATCC 10231 [12], in the series with E. coli ATCC 25922 [13], in the series with P. aeruginosa ATCC 27853 [14], in the series on E. faecalis ATCC 29212 [15] and in the series with S. aureus ATCC 25923 [16] was 0.00 ± 0.00 mm throughout.
